These results are taken from patent publication US8592629B2, “Sulfonamide derivatives as Nav 1.7 inhibitors” (Pfizer Limited, priority 2010, dated 2013).

Structures are written as SMILES.

T1 sequence (Q15858 whole entry): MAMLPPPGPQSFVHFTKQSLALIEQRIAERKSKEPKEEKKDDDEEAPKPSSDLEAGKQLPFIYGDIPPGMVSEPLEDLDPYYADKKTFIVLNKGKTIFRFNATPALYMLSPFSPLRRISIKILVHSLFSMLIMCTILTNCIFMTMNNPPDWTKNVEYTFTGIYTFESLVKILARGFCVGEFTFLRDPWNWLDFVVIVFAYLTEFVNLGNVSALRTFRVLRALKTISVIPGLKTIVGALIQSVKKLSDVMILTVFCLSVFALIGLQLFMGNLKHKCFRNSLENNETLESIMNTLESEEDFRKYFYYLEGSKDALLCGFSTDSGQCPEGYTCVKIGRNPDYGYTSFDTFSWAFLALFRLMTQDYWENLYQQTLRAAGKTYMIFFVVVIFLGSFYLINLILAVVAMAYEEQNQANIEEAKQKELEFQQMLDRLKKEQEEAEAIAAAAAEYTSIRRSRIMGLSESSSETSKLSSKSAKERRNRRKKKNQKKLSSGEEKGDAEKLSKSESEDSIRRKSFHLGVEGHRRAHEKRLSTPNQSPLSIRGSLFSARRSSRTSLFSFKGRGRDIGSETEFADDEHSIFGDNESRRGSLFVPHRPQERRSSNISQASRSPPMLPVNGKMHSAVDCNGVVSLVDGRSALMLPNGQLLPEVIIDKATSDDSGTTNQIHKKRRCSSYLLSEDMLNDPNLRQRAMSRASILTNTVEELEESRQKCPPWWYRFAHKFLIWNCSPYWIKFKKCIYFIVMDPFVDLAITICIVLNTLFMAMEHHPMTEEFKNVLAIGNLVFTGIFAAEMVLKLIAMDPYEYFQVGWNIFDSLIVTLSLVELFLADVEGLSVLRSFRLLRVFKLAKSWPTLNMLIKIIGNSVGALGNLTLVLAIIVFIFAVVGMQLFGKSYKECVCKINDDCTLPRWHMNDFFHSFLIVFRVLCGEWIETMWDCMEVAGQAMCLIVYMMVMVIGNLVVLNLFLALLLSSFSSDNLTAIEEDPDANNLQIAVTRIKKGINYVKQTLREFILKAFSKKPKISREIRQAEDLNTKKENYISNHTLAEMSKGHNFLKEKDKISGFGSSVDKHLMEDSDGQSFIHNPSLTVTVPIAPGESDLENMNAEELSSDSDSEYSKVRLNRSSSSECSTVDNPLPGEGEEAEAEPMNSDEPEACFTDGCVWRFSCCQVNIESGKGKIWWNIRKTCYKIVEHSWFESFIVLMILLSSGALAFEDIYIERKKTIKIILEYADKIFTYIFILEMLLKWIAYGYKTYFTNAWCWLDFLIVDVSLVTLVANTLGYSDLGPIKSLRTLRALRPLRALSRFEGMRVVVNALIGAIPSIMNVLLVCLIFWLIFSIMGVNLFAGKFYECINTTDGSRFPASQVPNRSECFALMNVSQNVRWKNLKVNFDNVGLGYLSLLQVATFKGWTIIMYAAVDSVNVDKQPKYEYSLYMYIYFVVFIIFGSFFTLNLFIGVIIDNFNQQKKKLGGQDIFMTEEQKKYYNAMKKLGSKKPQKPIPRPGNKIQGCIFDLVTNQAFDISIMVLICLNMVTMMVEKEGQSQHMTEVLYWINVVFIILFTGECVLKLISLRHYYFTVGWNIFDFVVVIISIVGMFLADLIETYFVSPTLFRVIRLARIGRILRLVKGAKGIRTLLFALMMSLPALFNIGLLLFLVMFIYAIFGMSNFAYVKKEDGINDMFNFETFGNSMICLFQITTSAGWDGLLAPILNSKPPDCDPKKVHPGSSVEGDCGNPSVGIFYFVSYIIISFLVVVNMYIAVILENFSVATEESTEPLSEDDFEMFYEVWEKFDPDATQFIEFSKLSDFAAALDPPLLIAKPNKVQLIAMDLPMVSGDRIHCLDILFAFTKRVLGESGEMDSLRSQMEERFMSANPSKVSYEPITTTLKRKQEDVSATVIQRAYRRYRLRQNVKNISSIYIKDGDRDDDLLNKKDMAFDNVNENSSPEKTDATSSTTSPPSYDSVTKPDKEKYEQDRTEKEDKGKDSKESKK

The assay addresses T1, Nav1.7 (or SCN9A) channel (Homo sapiens, UniProt Q15858).
T1 construct: expressed in transfected cells
The experiment in a line: Nav1.7 (hSCN9A) block in HEK cells, Ionworks Quattro automated electrophysiology. Format: cell-based. Conditions: Ionworks Quattro assay (IW); HEK cells stably transfected with hSCN9A; read-out: Nav1.7 EIC50 (IW). Here is the method: The ability of the compounds of formula (I) to block the Nav1.7 (or SCN9A) channel were measured using the assay described below.
Human Embryonic Kidney (HEK) cells were transfected with an hSCN9A construct using lipofectamine reagent (Invitrogen), using standard techniques. Cells stably expressing the hSCN9A constructs were identified by their resistance to G-418 (400 μg/ml). Clones were screened for expression using the whole-cell voltage-clamp technique.
HEK cells stably transfected with hSCN9A were maintained in DMEM medium supplemented with 10% heat-inactivated fetal bovine serum and 400 μg/ml G-418 in an incubator at 37° C. with a humidified atmosphere of 10% CO2. For HTS, cells were harvested from flasks by trypsinization and replated in an appropriate multi-well plate (typically 96 or 384 wells/plate) such that confluence would be achieved within 24 hours of plating. For electrophysiological studies, cells were removed from the culture flask by brief trypsinization and re-plated at low density onto glass cover slips. Cells were typically used for electrophysiological experiments within 24 to 72 hours after plating.
Electrophysiological assays were also conducted using the lonworks Quattro automated electrophysiological platform (Molecular Devices Corp). Intracellular and extracellular solutions were as described above with the following changes, 120 μg/ml amphotericin was added to the intracellular solution to perforate the membrane and allow electrical access to the cells. hSCN9A cells were grown and harvested as for PatchXpress and cells were resuspended in extracellular solution at a concentration of 1×10^6 cells/ml. The onboard liquid handling facility of the Ionworks Quattro was used for dispensing cells and application of test compounds. A voltage protocol was then applied that comprised of a voltage step to fully inactivate the sodium channels, followed by a brief hyperpolarized recovery period to allow partial recovery from inactivation for unblocked sodium channels, followed by a test depolarized voltage step to assess magnitude of inhibition by test compound. Compound effect was determined based on current amplitude difference between the pre-compound addition and post-compound addition scans.
Compounds of the Examples were tested in the assays described above and found to have the Nav1.7 EIC50 (μM) values specified in the table below. All data are derived from the PatchXpress assay unless explicitly stated otherwise.
Background: The patch-clamp technique gives a direct electrical read-out from membranes.
For the molecule `COc1cc(Oc2cc(F)c(C(=O)NS(C)(=O)=O)cc2F)ncn1` [Example 200, 2,5-difluoro-4-[(6-methoxypyrimidin-4-yl)oxy]-N-(methylsulfonyl)benzamide], the IC50 was 173 µM.

In the case of `Cn1cnc2cccc(Oc3cc(F)c(C(=O)NS(C)(=O)=O)cc3Cl)c21` [Example L44, 5-chloro-2-fluoro-4-[(1-methyl-1H-benzimidazol-7-yl)oxy]-N-(methylsulfonyl)benzamide], the IC50 is greater than 323 µM.

For the molecule `CCc1ccc(Oc2ccc(C(=O)NS(C)(=O)=O)c(C)c2)cn1` [Example L55, 4-[(6-ethylpyridin-3-yl)oxy]-2-methyl-N-(methylsulfonyl)benzamide], the IC50 was 300 µM.

For `CS(=O)(=O)NC(=O)c1ccc(Oc2ccc3ccccc3n2)c(C#N)c1` [Example L34, 3-cyano-N-(methylsulfonyl)-4-(quinolin-2-yloxy)benzamide], the IC50 came to 222 µM.

On to `Cc1nccnc1Oc1cc(F)c(C(=O)NS(C)(=O)=O)cc1F` [Example 189, 2,5-difluoro-4-[(3-methylpyrazin-2-yl)oxy]-N-(methylsulfonyl)benzamide], for which the IC50 was 232 µM.

In the case of `COc1c(C(=O)NS(C)(=O)=O)ccc(Oc2ccc(Oc3ccc(F)cc3)nc2)c1F` [Example L47, 3-fluoro-4-{[6-(4-fluorophenoxy)pyridin-3-yl]oxy}-2-methoxy-N-(methylsulfonyl)benzamide], the IC50 was 121 µM.

Regarding `CCCc1ccc(Oc2ccc(C(=O)NS(C)(=O)=O)cc2F)cn1` [Example L48, 3-fluoro-N-(methylsulfonyl)-4-[(6-propylpyridin-3-yl)oxy]benzamide], the IC50 stood at 38.5 µM.

In the case of `CS(=O)(=O)NC(=O)c1ccc(Oc2cncnc2)c(Cl)c1` [Example L64, 3-chloro-N-(methylsulfonyl)-4-(pyrimidin-5-yloxy)benzamide], the IC50 is greater than 323 µM.

As to `CS(=O)(=O)NC(=O)c1ccc(Oc2cc3ccccc3cn2)c(C#N)c1` [Example L43, 3-cyano-4-(isoquinolin-3-yloxy)-N-(methylsulfonyl)benzamide], the IC50 came out at 41 µM.

Turning to `CCc1cn2nc(Oc3cc(F)c(C(=O)NS(C)(=O)=O)cc3F)ccc2n1` [Example 180, 4-[(2-ethylimidazo[1,2-b]pyridazin-6-yl)oxy]-2,5-difluoro-N-(methylsulfonyl)benzamide], the IC50 amounted to 232 µM.

As to `CS(=O)(=O)NC(=O)c1cc(F)c(Oc2nncc3ccccc23)cc1F` [Example 195, 2,5-difluoro-N-(methylsulfonyl)-4-(phthalazin-1-yloxy)benzamide], the IC50 was greater than 323 µM.

Regarding `Cc1cc(Oc2cc(F)c(C(=O)NS(C)(=O)=O)cc2F)nc(C)n1` [Example 183, 4-[(2,6-dimethylpyrimidin-4-yl)oxy]-2,5-difluoro-N-(methylsulfonyl)benzamide], the IC50 is greater than 323 µM.

Turning to `CS(=O)(=O)NC(=O)c1cc(F)c(Oc2ncc(Cl)cn2)cc1F` [Example 198, 4-[(5-chloropyrimidin-2-yl)oxy]-2,5-difluoro-N-(methylsulfonyl)benzamide], the IC50 is greater than 323 µM.

Take `CS(=O)(=O)NC(=O)c1ccc(Oc2cncc3ccccc23)c(C#N)c1` [Example L37, 3-cyano-4-(isoquinolin-4-yloxy)-N-(methylsulfonyl)benzamide]: the IC50 was greater than 323 µM.

For `Cc1ccc(Oc2ccc(C(=O)NS(C)(=O)=O)cc2F)cn1` [Example L51, 3-fluoro-4-[(6-methylpyridin-3-yl)oxy]-N-(methylsulfonyl)benzamide], the IC50 is 300 µM.
